Columns and labels:
CD8+ T cells = experiment: In vitro immunogenicity: T-cell priming with aAPCs loaded with peptide/MHC and anti-CD28, pMHC multimer readout; format: cell-based, human; conditions: pMHC multimer readout after T-cell priming
Method: After three cycles of stimulation, the detection of peptide-reactive cells was performed by 2D multimer staining with B*44/SEQ ID NO: 469 (FIG. 3A), B*44/SEQ ID NO: 512 (FIG. 3B), B*44/SEQ ID NO: 9 (FIG. 3C), B*44/SEQ ID NO: 11 (D), B*44/SEQ ID NO: 17 (E), B*44/SEQ ID NO: 35 (F) or B*44/SEQ ID NO: 41 (FIG. 3G). Right panels (FIGS. 3A through 3G) show control staining of cells stimulated with irrelevant B*44/peptide complexes. Viable singlet cells were gated for CD8+ lymphocytes. Boolean gates helped excluding false-positive events detected with multimers specific for different peptides.
In order to obtain information regarding the immunogenicity of the TUMAPs of the present invention, the inventors performed investigations using an in vitro T-cell priming assay based on repeated stimulations of CD8+ T cells with artificial antigen presenting cells (aAPCs) loaded with peptide/MHC complexes and anti-CD28 antibody.
In order to perform in vitro stimulations by artificial antigen presenting cells loaded with peptide-MHC complex (pMHC) and anti-CD28 antibody, the inventors first isolated CD8+ T cells from fresh HLA-A*02 leukapheresis products via positive selection using CD8 microbeads (Miltenyi Biotec, Bergisch-Gladbach, Germany) of healthy donors obtained from the University clinics Mannheim, Germany, after informed consent.
PBMCs and isolated CD8+ lymphocytes were incubated in T-cell medium (TCM) until use consisting of RPMI-Glutamax (Invitrogen, Karlsruhe, Germany) supplemented with 10% heat inactivated human AB serum (PAN-Biotech, Aidenbach, Germany), 100 U/ml Penicillin/100 μg/ml Streptomycin (Cambrex, Cologne, Germany), 1 mM sodium pyruvate (CC Pro, Oberdorda, Germany), 20 μg/ml Gentamycin (Cambrex). 2.5 ng/ml IL-7 (PromoCell, Heidelberg, Germany) and 10 U/ml IL-2 (Novartis Pharma, Nümberg, Germany) were also added to the TCM at this step.
Generation of pMHC/anti-CD28 coated beads, T-cell stimulations and readout was performed in a highly defined in vitro system using four different pMHC molecules per stimulation condition and 8 different pMHC molecules per readout condition.
The purified co-stimulatory mouse IgG2a anti human CD28 Ab 9.3 (Jung et al., 1987) was chemically biotinylated using Sulfo-N-hydroxysuccinimidobiotin as recommended by the manufacturer (Perbio, Bonn, Germany). Beads used were 5.6 μm diameter streptavidin coated polystyrene particles (Bangs Laboratories, Illinois, USA).
800.000 beads/200 μl were coated in 96-well plates in the presence of 4×12.5 ng different biotin-pMHC, washed and 600 ng biotin anti-CD28 were added subsequently in a volume of 200 μl. Stimulations were initiated in 96-well plates by co-incubating 1×10^6 CD8+ T cells with 2×10^5 washed coated beads in 200 μl TCM supplemented with 5 ng/ml IL-12 (PromoCell) for 3 days at 37° C. Half of the medium was then exchanged by fresh TCM supplemented with 80 U/ml IL-2 and incubating was continued for 4 days at 37° C. This stimulation cycle was performed for a total of three times. For the pMHC multimer readout using 8 different pMHC molecules per condition, a two-dimensional combinatorial coding approach was used as previously described (Andersen et al., 2012) with minor modifications encompassing coupling to 5 different fluorochromes. Finally, multimeric analyses were performed by staining the cells with Live/dead near IR dye (Invitrogen, Karlsruhe, Germany), CD8-FITC antibody clone SK1 (BD, Heidelberg, Germany) and fluorescent pMHC multimers. For analysis, a BD LSRII SORP cytometer equipped with appropriate lasers and filters was used. Peptide specific cells were calculated as percentage of total CD8+ cells. Evaluation of multimeric analysis was done using the FlowJo software (Tree Star, Oregon, USA). In vitro priming of specific multimer+CD8+ lymphocytes was detected by comparing to negative control stimulations.

HLA-B*44:05 = HLA-B*44:05 (Homo sapiens, UniProt P01889, A223V/A65T/A93T/A95T/D201E/D98Y/E176V/E187L/E204Q/E69K/G107R/H137Y/K202T/L105A/L119I/N104T/N87E/Q56L/Q94N/R106L/R155S/R180D/S101N/S121R/S35A/S48T/T118I/V36M/W191S/Y91S); experiment: MHC binding assay (UV-ligand exchange, β2m ELISA, peptide exchange yield); conditions: binding to HLA-B*44:05
Summary of the method: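 Binding is read as exchange yield, i.e. stabilized complex remaining after UV cleavage of a photolabile ligand in the presence of the candidate peptide. Streptavidin-captured monomers (100-fold dilution) are probed with HRP-anti-β2m, 1h at 37° C, TMB, A450. Standard curve: HLA-A*02:01/MLA-001 monomers at 15-500 ng/ml.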

Peptide exchange (MHC class I binding score, peptide exchange yield) (HLA-B*44:05) | Substance | Wells positive [%] (CD8+ T cells; Table 10b) | Wells positive [%] (CD8+ T cells; Table 10a)
++ (>20% = ++) | 4 (AEALGAAKKL; listed as Homo sapiens) [compound 4] | + (<20% = +) | –
+++ (>50 = +++) | 6 (AELVGPVIPQDW; listed as Homo sapiens) [compound 6] | ++ (20%-49% = ++) | –
+++ (>50 = +++) | 7 (SESDLVNFI; listed as Homo sapiens) [compound 7] | + (<20% = +) | –
++++ (>75% = ++++) | 9 (MEVDPIGHLYIF; listed as Homo sapiens) [compound 9] | +++ (50%-69% = +++) | –
+++ (>50 = +++) | 11 (EENIVAIGI; listed as Homo sapiens) [compound 11] | +++ (50%-69% = +++) | –
+++ (>50 = +++) | 12 (KEVDPTGHSF; listed as Homo sapiens) [compound 12] | + (<20% = +) | –
++ (>20% = ++) | 13 (VEAQDRETW; listed as Homo sapiens) [compound 13] | ++ (20%-49% = ++) | –
+++ (>50 = +++) | 15 (MEAELVRRI; listed as Homo sapiens) [compound 15] | + (<20% = +) | –
+++ (>50 = +++) | 16 (NESDRLVYF; listed as Homo sapiens) [compound 16] | ++ (20%-49% = ++) | –
+++ (>50 = +++) | 452 (NEVDGEYRY; listed as Homo sapiens) [compound 452] | – | –
+++ (>50 = +++) | 453 (SESKVFQLL; listed as Homo sapiens) [compound 453] | – | –
+++ (>50 = +++) | 454 (SESSSAFQF; listed as Homo sapiens) [compound 454] | – | –
++++ (>75% = ++++) | 455 (QESVHVASYYW; listed as Homo sapiens) [compound 455] | – | –
+++ (>50 = +++) | 456 (SESPIRISV; listed as Homo sapiens) [compound 456] | – | –
– | 459 (KEVDPAGHSY; listed as Homo sapiens) [compound 459] | – | ++ (20%-49% = ++)
– | 460 (SEFMQVIF; listed as Homo sapiens) [compound 460] | – | + (<20% = +)
– | 461 (MEVDPIGHVYIF; listed as Homo sapiens) [compound 461] | – | + (<20% = +)
– | 463 (QEMQHFLGL; listed as Homo sapiens) [compound 463] | – | + (<20% = +)
– | 467 (FEYDFLLQRI; listed as Homo sapiens) [compound 467] | – | + (<20% = +)
– | 468 (QEQDVDLVQKY; listed as Homo sapiens) [compound 468] | – | + (<20% = +)
– | 469 (SEAFPSRAL; listed as Homo sapiens) [compound 469] | – | +++ (50%-69% = +++)
– | 470 (EDAQGHIW; listed as Homo sapiens) [compound 470] | – | ++ (20%-49% = ++)
– | 474 (AEEEIMKKI; listed as Homo sapiens) [compound 474] | – | + (<20% = +)
– | 476 (MEHPGKLLF; listed as Homo sapiens) [compound 476] | – | + (<20% = +)
– | 477 (VYEKNGYIYF; listed as Homo sapiens) [compound 477] | – | ++++ (>=70% = ++++)

Peptide exchange (MHC class I binding score, peptide exchange yield) (HLA-B*44:05) | Substance | Wells positive [%] (CD8+ T cells; Table 10b) | Wells positive [%] (CD8+ T cells; Table 10a)
– | 479 (QENSYQSRL; listed as Homo sapiens) [compound 479] | – | + (<20% = +)
– | 485 (NEHPSNNW; listed as Homo sapiens) [compound 485] | – | + (<20% = +)
– | 487 (LEMPHYSTF; listed as Homo sapiens) [compound 487] | – | +++ (50%-69% = +++)
– | 488 (SENPETITY; listed as Homo sapiens) [compound 488] | – | ++ (20%-49% = ++)
– | 489 (SEYADTHYF; listed as Homo sapiens) [compound 489] | – | +++ (50%-69% = +++)
– | 490 (TENRYCVQL; listed as Homo sapiens) [compound 490] | – | ++ (20%-49% = ++)
– | 491 (YEVDTVLRY; listed as Homo sapiens) [compound 491] | – | + (<20% = +)
– | 492 (AEHNFVAKA; listed as Homo sapiens) [compound 492] | – | + (<20% = +)
– | 494 (KEITGFLLI; listed as Homo sapiens) [compound 494] | – | ++ (20%-49% = ++)
– | 495 (RENQVLGSGW; listed as Homo sapiens) [compound 495] | – | +++ (50%-69% = +++)
– | 496 (AEIGEGAYGKVF; listed as Homo sapiens) [compound 496] | – | ++ (20%-49% = ++)
– | 497 (GEGAYGKVF; listed as Homo sapiens) [compound 497] | – | +++ (50%-69% = +++)
– | 500 (QEVLLQTFL; listed as Homo sapiens) [compound 500] | – | + (<20% = +)
– | 501 (KEGDLGGKQW; listed as Homo sapiens) [compound 501] | – | + (<20% = +)
– | 504 (KESQLPTVM; listed as Homo sapiens) [compound 504] | – | ++ (20%-49% = ++)
– | 506 (QESDLRLFL; listed as Homo sapiens) [compound 506] | – | + (<20% = +)
– | 508 (AESEDLAVHL; listed as Homo sapiens) [compound 508] | – | + (<20% = +)
– | 509 (AESEDLAVHLY; listed as Homo sapiens) [compound 509] | – | + (<20% = +)
– | 510 (SEDLAVHLY; listed as Homo sapiens) [compound 510] | – | ++++ (>=70% = ++++)
– | 511 (AEAVLKTLQEL; listed as Homo sapiens) [compound 511] | – | + (<20% = +)
– | 512 (AEPLVGQRW; listed as Homo sapiens) [compound 512] | – | ++++ (>=70% = ++++)
– | 513 (AEKDGKLTDY; listed as Homo sapiens) [compound 513] | – | + (<20% = +)
– | 515 (AEGGKVPIKW; listed as Homo sapiens) [compound 515] | – | ++ (20%-49% = ++)
– | 516 (DEYLIPQQGF; listed as Homo sapiens) [compound 516] | – | + (<20% = +)
– | 518 (FELPTGAGL; listed as Homo sapiens) [compound 518] | – | ++ (20%-49% = ++)
